Where two headings read alike, the source gives them in different places.

Type in all cases: biochemical
One test addresses human cathepsin S (CatS) (Homo sapiens (Human), UniProt P25774). The test is described as follows: CatS functional enzyme assay. The conditions noted are these: for Selectivity Ki(hCatS)/Ki(hCatK): ratio Ki(hCatS)/Ki(hCatK); for Ki: read-out: hCatS, Ki; for inhibition at 10 µM: read-out: hCatS, inhibition [%] at 10 μM. As to the method:
Reference and test compounds were assayed for inhibitory potency (IC50) against human cathepsins using the following assay setups: Recombinant human cathepsins (CatS, CatK, CatL) were purchased from a Enzo Life Sciences. […] For CatS, the enzyme (0.0007 mU/well) was incubated with fluorogeninc substrate (Z-VVR-AMC, 5 μM) at RT for 10 min. For CatK the enzyme (0.00175 mU/well) was incubated with fluorogeninc substrate (Z-FR-AMC, 40 μM) at RT for 10 min. For CatL, the enzyme (0.000874 mU/well) was incubated with fluorogeninc substrate (Z-VVR-AMC, 40 μM) at RT for 10 min. Flourogenic substrate turnover was detected using a microplate reader (Synergy™ H4, BioTek). Ki values were calculated using the Cheng Prusoff equation (Cheng & Prosoff 1973).

In the next test the target is human cathepsin K (CatK) (Homo sapiens (Human), UniProt P43235). Nature of the test: CatK functional enzyme assay. The note with it: for Ki: recombinant human CatK, substrate Z-FR-AMC 40 μM, pH 5.5, Ki by Cheng Prusoff equation, read-out: hCatK, Ki. As to the method:
(§1) Reference and test compounds were assayed for inhibitory potency (IC50) against human cathepsins using the following assay setups:
(§2) Recombinant human cathepsins (CatS, CatK, CatL) were purchased from a Enzo Life Sciences. All assays were carried out in 96-well format using a buffer of 50 mM KH2PO4, 50 mM NaCl, 2 mM EDTA, 0.5 mM DTT and 1% Triton-X-100, pH 6.5 for Cathepsin S and a buffer of 50 mM NaOAc, 10 mM EDTA, 1 mM DTT and 0.01% Triton-X-100, pH 5.5 for CatK/L/B. For CatS, the enzyme (0.0007 mU/well) was incubated with fluorogeninc substrate (Z-VVR-AMC, 5 μM) at RT for 10 min. For CatK the enzyme (0.00175 mU/well) was incubated with fluorogeninc substrate (Z-FR-AMC, 40 μM) at RT for 10 min. For CatL, the enzyme (0.000874 mU/well) was incubated with fluorogeninc substrate (Z-VVR-AMC, 40 μM) at RT for 10 min. Flourogenic substrate turnover was detected using a microplate reader (Synergy™ H4, BioTek). Ki values were calculated using the Cheng Prusoff equation (Cheng & Prosoff 1973).

The next test has as its target human cathepsin L (CatL) (Homo sapiens (Human), UniProt P07711). Nature of the test: CatL functional enzyme assay. The conditions noted are these: read-out: hCatL, inhibition [%] at 31.6 μM. As to the method: as §1, §2
Setting [1] is: recombinant human CatS, substrate Z-VVR-AMC 5 μM, pH 6.5, Ki by Cheng Prusoff equation.

Sequence of human cathepsin K (CatK) (P43235 115-329): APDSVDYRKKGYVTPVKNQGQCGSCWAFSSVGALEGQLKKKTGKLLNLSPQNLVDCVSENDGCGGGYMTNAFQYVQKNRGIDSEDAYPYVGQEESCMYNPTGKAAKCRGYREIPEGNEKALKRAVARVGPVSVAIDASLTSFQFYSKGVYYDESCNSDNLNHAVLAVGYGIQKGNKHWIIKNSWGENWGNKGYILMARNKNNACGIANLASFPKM
Sequence of human cathepsin S (CatS) (P25774 115-331): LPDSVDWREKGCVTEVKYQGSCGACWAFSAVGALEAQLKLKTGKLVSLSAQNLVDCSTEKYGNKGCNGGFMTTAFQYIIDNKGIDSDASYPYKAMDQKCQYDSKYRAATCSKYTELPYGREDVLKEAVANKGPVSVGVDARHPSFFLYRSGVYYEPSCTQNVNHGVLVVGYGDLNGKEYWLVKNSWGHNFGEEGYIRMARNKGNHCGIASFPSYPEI
Sequence of human cathepsin L (CatL) (P07711 114-333): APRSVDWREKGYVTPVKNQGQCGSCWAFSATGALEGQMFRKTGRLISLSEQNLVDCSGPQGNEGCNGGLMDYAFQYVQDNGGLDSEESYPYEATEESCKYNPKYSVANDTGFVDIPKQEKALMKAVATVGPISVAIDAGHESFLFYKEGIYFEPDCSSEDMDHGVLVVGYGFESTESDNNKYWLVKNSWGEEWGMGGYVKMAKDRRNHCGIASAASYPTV

As usually defined, the Ki is the equilibrium dissociation constant of an inhibitor or competing ligand from its target. Broadly, the inhibition is the percentage by which the read-out fell short of the control. Take `O=C(N[C@H](C(=O)N1C[C@H](Cl)[C@H]2OCC(=O)[C@H]21)C1CCCCC1)c1ccc(-c2ccccn2)s1` [Example 1, N-((S)-2-((3aS,6S,6aS)-6-chloro-3-oxotetrahydro-2H-furo[3,2-b]pyrrol-4(5H)-yl)-1-cyclohexyl-2-oxoethyl)-5-(pyridin-2-yl)thiophene-2-carboxamide]: on human cathepsin S (CatS), the “Selectivity Ki(hCatS)/Ki(hCatK)” value was 28.7 and the inhibitory constant (Ki) was 402 nM. Also, the Ki on human cathepsin K (CatK) amounted to 14 nM. Further, the inhibition at 31.6 µM on human cathepsin L (CatL) was found to be 3%.
In the same order, the values of `O=C(N[C@H](C(=O)N1C[C@H](Cl)[C@H]2OCC(=O)[C@H]21)C1CCCCC1)c1ccc(-c2cccnc2)s1` [Example 2, N-((S)-2-((3aS,6S,6aS)-6-chloro-3-oxotetrahydro-2H-furo[3,2-b]pyrrol-4(5H)-yl)-1-cyclohexyl-2-oxoethyl)-5-(pyridin-3-yl)thiophene-2-carboxamide] are 23.0, 115 nM, 5 nM and 10%.
In the case of `O=C(N[C@H](C(=O)N1C[C@H](Cl)[C@H]2OCC(=O)[C@H]21)C1CCCCC1)c1ccc(-c2ccncc2)s1` [Example 3, N-((S)-2-((3aS,6S,6aS)-6-chloro-3-oxotetrahydro-2H-furo[3,2-b]pyrrol-4(5H)-yl)-1-cyclohexyl-2-oxoethyl)-5-(pyridin-4-yl)thiophene-2-carboxamide], at human cathepsin S (CatS), the “Selectivity Ki(hCatS)/Ki(hCatK)” value amounted to 34.3 and the Ki was 103 nM. Also, the inhibitory constant (Ki) at human cathepsin K (CatK) was determined as 3 nM. On human cathepsin L (CatL), the inhibition at 31.6 µM was 5%.
In the same order, the values of `O=C(N[C@H](C(=O)N1C[C@H](Cl)[C@H]2OCC(=O)[C@H]21)C1CCCCC1)c1ccc(-c2cnccn2)s1` [Example 4, N-((S)-2-((3aS,6S,6aS)-6-chloro-3-oxotetrahydro-2H-furo[3,2-b]pyrrol-4(5H)-yl)-1-cyclohexyl-2-oxoethyl)-5-(pyrazin-2-yl)thiophene-2-carboxamide] are 13.1, 184 nM, 14 nM and 17%.
Regarding `O=C(N[C@H](C(=O)N1C[C@H](Cl)[C@H]2OCC(=O)[C@H]21)C1CCCCC1)c1ccc(-c2cccnn2)s1` [Example 6, N-((S)-2-((3aS,6S,6aS)-6-chloro-3-oxotetrahydro-2H-furo[3,2-b]pyrrol-4(5H)-yl)-1-cyclohexyl-2-oxoethyl)-5-(pyridazin-3-yl)thiophene-2-carboxamide], the “Selectivity Ki(hCatS)/Ki(hCatK)” value on human cathepsin S (CatS) was 5.5. In addition, the Ki at human cathepsin S (CatS) (setting [1]) came out at 60 nM; at human cathepsin K (CatK), 11 nM. Besides, on human cathepsin L (CatL), the inhibition at 31.6 µM turned out to be 36%.
In the case of `O=C(N[C@H](C(=O)N1C[C@H](Cl)[C@H]2OCC(=O)[C@H]21)C1CCCCC1)c1ccc(-c2ncccn2)s1` [Example 9, N-((S)-2-((3aS,6S,6aS)-6-chloro-3-oxotetrahydro-2H-furo[3,2-b]pyrrol-4(5H)-yl)-1-cyclohexyl-2-oxoethyl)-5-(pyrimidin-2-yl)thiophene-2-carboxamide], the “Selectivity Ki(hCatS)/Ki(hCatK)” value on human cathepsin S (CatS) is on record as 81.7. The Ki on human cathepsin S (CatS) (setting [1]) stood at 1470 nM; at human cathepsin K (CatK), 18 nM. At human cathepsin L (CatL), the inhibition at 31.6 µM is 4%.
`O=C(N[C@H](C(=O)N1C[C@H](Cl)[C@H]2OCC(=O)[C@H]21)C1CCCCC1)c1ccc(-c2cccnc2)o1` [Example 10, N-((S)-2-((3aS,6S,6aS)-6-chloro-3-oxotetrahydro-2H-furo[3,2-b]pyrrol-4(5H)-yl)-1-cyclohexyl-2-oxoethyl)-5-(pyridin-3-yl)furan-2-carboxamide]: the “Selectivity Ki(hCatS)/Ki(hCatK)” value on human cathepsin S (CatS) is 11.3. Also, at human cathepsin L (CatL), the inhibition at 31.6 µM came to 16%.
Turning to `O=C(N[C@H](C(=O)N1C[C@H](Cl)[C@H]2OCC(=O)[C@H]21)C1CCCCC1)c1ccc(-c2cncnc2)o1` [Example 11, N-((S)-2-((3aS,6S,6aS)-6-chloro-3-oxotetrahydro-2H-furo[3,2-b]pyrrol-4(5H)-yl)-1-cyclohexyl-2-oxoethyl)-5-(pyrimidin-5-yl)furan-2-carboxamide], at human cathepsin S (CatS), the “Selectivity Ki(hCatS)/Ki(hCatK)” value is 1.1. Further, the Ki stood at 99 nM on human cathepsin S (CatS) (setting [1]) and 87 nM on human cathepsin K (CatK). Besides, on human cathepsin L (CatL), the inhibition at 31.6 µM amounted to 14%.
In the same order, the values of `O=C(N[C@H](C(=O)N1C[C@H](Cl)[C@H]2OCC(=O)[C@H]21)C1CCCCC1)c1ccc(-c2ccncc2)o1` [Example 12, N-((S)-2-((3aS,6S,6aS)-6-chloro-3-oxotetrahydro-2H-furo[3,2-b]pyrrol-4(5H)-yl)-1-cyclohexyl-2-oxoethyl)-5-(pyridin-4-yl)furan-2-carboxamide] are 10.4, 521 nM, 50 nM and 18%.
As for `O=C(N[C@H](C(=O)N1C[C@H](Cl)[C@H]2OCC(=O)[C@H]21)C1CCCCC1)c1cnc(-c2cccnc2)s1` [Example 13, N-((S)-2-((3aS,6S,6aS)-6-chloro-3-oxotetrahydro-2H-furo[3,2-b]pyrrol-4(5H)-yl)-1-cyclohexyl-2-oxoethyl)-2-(pyridin-3-yl)thiazole-5-carboxamide], the inhibition at 10 µM on human cathepsin S (CatS) worked out at 73%. Also, the Ki at human cathepsin K (CatK) came out at 29 nM. Further, the inhibition at 31.6 µM on human cathepsin L (CatL) turned out to be 16%.
`Cc1nc(-c2cccnc2)sc1C(=O)N[C@H](C(=O)N1C[C@H](Cl)[C@H]2OCC(=O)[C@H]21)C1CCCCC1` [Example 14, N-((S)-2-((3aS,6S,6aS)-6-chloro-3-oxotetrahydro-2H-furo[3,2-b]pyrrol-4(5H)-yl)-1-cyclohexyl-2-oxoethyl)-4-methyl-2-(pyridin-3-yl)thiazole-5-carboxamide]: the inhibition at 10 µM at human cathepsin S (CatS) worked out at 70%; on human cathepsin K (CatK) (read-out: hCatK, inhibition [%] at 10 μM), 88%. For the same molecule, the inhibition at 31.6 µM at human cathepsin L (CatL) was 21%.
As for `O=C(N[C@H](C(=O)N1C[C@H](Cl)[C@H]2OCC(=O)[C@H]21)C1CCCCC1)c1cnc(-c2ccnnc2)o1` [Example 21, N-((S)-2-((3aS,6S,6aS)-6-chloro-3-oxotetrahydro-2H-furo[3,2-b]pyrrol-4(5H)-yl)-1-cyclohexyl-2-oxoethyl)-2-(pyridazin-4-yl)oxazole-5-carboxamide], the “Selectivity Ki(hCatS)/Ki(hCatK)” value on human cathepsin S (CatS) stood at 1.9. The inhibition at 31.6 µM on human cathepsin L (CatL) was 15%.
In the same order, the values of `O=C(N[C@H](C(=O)N1C[C@H](Cl)[C@H]2OCC(=O)[C@H]21)C1CCCCC1)c1ccc(-c2ccncn2)o1` [Example 27, N-((S)-2-((3aS,6S,6aS)-6-chloro-3-oxotetrahydro-2H-furo[3,2-b]pyrrol-4(5H)-yl)-1-cyclohexyl-2-oxoethyl)-5-(pyrimidin-4-yl)furan-2-carboxamide] are 2.7 and 18%.
Turning to `O=C(N[C@H](C(=O)N1C[C@H](Cl)[C@H]2OCC(=O)[C@H]21)C1CCCCC1)c1nnc(-c2ccncc2)s1` [Example 28, N-((S)-2-((3aS,6S,6aS)-6-chloro-3-oxotetrahydro-2H-furo[3,2-b]pyrrol-4(5H)-yl)-1-cyclohexyl-2-oxoethyl)-5-(pyridin-4-yl)-1,3,4-thiadiazole-2-carboxamide], the inhibition at 10 µM on human cathepsin S (CatS) worked out at 83%. The inhibition at 31.6 µM at human cathepsin L (CatL) turned out to be 14%.
In the case of `Cc1nccc(-c2ccc(C(=O)N[C@H](C(=O)N3C[C@H](Cl)[C@H]4OCC(=O)[C@H]43)C3CCCCC3)s2)n1` [Example 29, N-((S)-2-((3aS,6S,6aS)-6-chloro-3-oxotetrahydro-2H-furo[3,2-b]pyrrol-4(5H)-yl)-1-cyclohexyl-2-oxoethyl)-5-(2-methylpyrimidin-4-yl)thiophene-2-carboxamide], the “Selectivity Ki(hCatS)/Ki(hCatK)” value at human cathepsin S (CatS) is 26.4. For the same molecule, the inhibition at 31.6 µM on human cathepsin L (CatL) worked out at 6%.
Regarding `COc1ccc(-c2ccc(C(=O)N[C@H](C(=O)N3C[C@H](Cl)[C@H]4OCC(=O)[C@H]43)C3CCCCC3)s2)nn1` [Example 34, N-((S)-2-((3aS,6S,6aS)-6-chloro-3-oxotetrahydro-2H-furo[3,2-b]pyrrol-4(5H)-yl)-1-cyclohexyl-2-oxoethyl)-5-(6-methoxypyridazin-3-yl)thiophene-2-carboxamide], at human cathepsin S (CatS), the “Selectivity Ki(hCatS)/Ki(hCatK)” value is given as 21.5. Besides, on human cathepsin L (CatL), the inhibition at 31.6 µM came to 15%.

Source of the values: patent publication US9725459B2, “3-oxo-tetrahydro-furo[3,2-B]pyrrol-4(5H)-yl) derivatives I” (GRÜNENTHAL GMBH, priority 2014, dated 2017).
